Assay results taken from article PMC6430500, “3-Fluoro-4-hydroxyprolines: Synthesis, Conformational Analysis, and Stereoselective Recognition by the VHL E3 Ubiquitin Ligase for Targeted Protein Degradation” (Journal of the American Chemical Society, 2018).
Where two headings read alike, the source gives them in different places.

Tests used:
MV4;11 cells = assay: CellTiter-Glo cell viability assay; format: cell-based; conditions: for EC50: MV4-11, 72 h
Procedure: MV4;11 cells (15000 cells per well) were dosed for 72 h with compounds serially diluted (1:3) on a clear-bottom 384-well plate with a final concentration of 0.05% (v/v) DMSO. After treatment, Promega CellTiter-Glo luminescent cell viability assay (G7572) was added to the cells according to the manufacturer instructions. The signal from each well was recorded on a BM G Labtech Pherastar luminescence plate reader with recommended settings.
Normalized data were analyzed and plotted with Graphpad Prism software in the ‘log(inhibitor) vs. response -- Variable slope (four parameters)’ module. EC50 values of each test compound were […]

Brd4BD2 = molecular target: T1, Brd4BD2 (Homo sapiens, UniProt O60885); assay: ITC of PROTACs, binary titration with Brd4BD2; format: binding; conditions: PROTAC in cell, Brd4BD2 in syringe
T1 construct: Brd4BD2 (333–460); made in house; host or cells: E. coli BL21(DE3)
From the text: (§1) structure (C2 R, C3 S, C4 R) assumed on the basis of unchanging stereogenic centres in the synthesis.
(§2) Final R(F) = 0.033, wR(F 2) = 0.085 for 275 parameters and 3901 reflections with I > 2σ(I) (corresponding R-values based on all 4067 reflections = 0.035 and 0.086, respectively), CCDC […]
(§3) Protein expression and purification.
(§4) Wild-type versions of human proteins VHL (UniProt accession number: P40337), ElonginC […]
(§5) expression. For expression of VBC, N-terminally His6-tagged VHL (54–213), ElonginC (17–112) and ElonginB (1–104) were co- expressed in Escherichia coli BL21(DE3) at 24 °C for 16 h using 0.3 mM isopropyl β-D -1-thiogalactopyranoside (IPTG). E. coli cells were lysed using a pressure cell homogenizer (Stansted Fluid Power) and lysate clarified by centrifugation. His6-tagged VCB was purified on a HisTrap FF affinity column (GE Healthcare) by elution with an imidazole gradient. The His6tag was removed using TEV protease and the untagged complex dialyzed into low -concentration imidazole buffer. VCB was then flowed through the HisTrap FF column a second time, allowing impurities to bind, as the complex eluted without binding. VCB was then additionally purified by anion exchange and size-exclusion chromatography using ResourceQ and Superdex-75 columns (GE Healthcare), respectively. The final purified complex was stored in 20 mM Bis–Tris, pH 7, 150 mM sodium chloride and 1 mM dithiothreitol (DTT). Brd2BD1 (71–194), and Brd4BD2 (333–460) were expressed with an N-terminal His6 tag in E. coli BL21(DE3) at 18 °C for 20 h using 0.2 mM IPTG.
(§6) His6-tagged BDs were purified on nickel Sepharose 6 fast flow beads (GE Healthcare) by elution with increasing concentrations of imidazole. For crystallography the His6-tagged BD was cleaved with TEV protease and dialyzed into low-concentration imidazole buffer. The BD was then flowed over the nickel beads a second time to remove impurities and protease. BDs were then additionally purified by size-exclusion chromatography using a Superdex-75 column. The BDs were purified by size-exclusion chromatography using a Superdex-75 column. The final purified proteins were stored in 20 mM 4-(2-hydroxyethyl)-1-piperazineethanesulfonic acid (HEPES), pH 7.5, 150 mM sodium chloride and 1 mM DTT. All chromatography purification steps were performed using Äkta FPLC purification systems (GE Healthcare) or glass econo-columns (Bio-Rad) at room temperature.
(§7) Isothermal titration calorimetry (ITC) of peptides and ligands
(§8) Titrations were performed on an ITC200 micro-calorimeter (GE Healthcare). The peptides were dissolved in buffer (20 mM Bis–Tris propane, 100 mM NaCl, 1 mM tris(2-carboxyethyl)phosphine […]
(§9) (TCEP), pH 7.4) at 100 µM. The compounds were titrated against 10 µM VBC complex, equilibrated in the same buffer. The titrations consisted of 20 injections of 2 µL of peptide solution at a rate of 0.5 µL/s at 120 s time intervals. An initial injection of ligand (0.4 µL) was made and discarded during data analysis. All experiments were performed at 25°C while stirring at 650 rpm.
(§10) Ligands 14a- b were diluted from DMSO stock solution to 300 µM in buffer (20 mM Bis-Tris propane, 150 mM NaCl, 1 mM TCEP, pH 7.4). The compounds were titrated against 30 µM VBC complex, equilibrated in the same buffer. The final concentration of DMSO in each experiment was […]
(§11) The data were fitted to a single-binding-site model using the MicroCal PEAQ-ITC analysis software provided by the manufacturer to obtain the stoichiometry n, the dissociation constant K d, and the enthalpy of binding ΔH . The reported values are the mean ± s.e.m. from independent measurements.
(§12) Isothermal titration calorimetry (ITC)of PROTACs
(§13) The titrations were all performed as reverse mode (protein in syringe, ligand in cell) and consisted of 19 injections of 2 µl protein solution (20 mM Bis–Tris propane, 100 mM NaCl, 1 mM tris(2-carboxyethyl)phosphine (TCEP), pH 7.4) at a rate of 0.5 µl/s at 120 s time intervals. An initial injection (0.4 µl) was made and discarded during data analysis. […]

A549 cells = assay: A549 colony-formation assay; format: cell-based; conditions: 7 days, crystal violet
Procedure: A549 Colony-Formation Assay
A549 cells were seeded in clear, Nunc™ Edge 2.0 96 -w ell plates (Thermo Scientific) at 1000 cells per well and incubated at 37°C in DMEM. After 24 h cells were treated with test compounds from 10 µM to 100 nM , with a final DM SO of 0.1%. The cells were left to grow until DM SO -treated wells reached ~100% confluence (~8 days), at which point they were washed with PBS, fixed with 100% MeOH (30 min 4°C), stained with 0.1% crystal violet (30 min at r.t.) and left to dry overnight. Once dried plates were imaged on an Epson Perfection V800 scanner, at a resolution of 1200 DPI and in 48 -bit colour.
For dose-response curves, crystal-violet dye was extracted by the addition of 200 µl 1% SDS to each well, and incubation for 3 h at r.t. The absorbance at 595nm of each well was measured on a Pherastar FS (BMG), normalised for each compound and plotted against compound concentration.
(1 picture or pasted object on this page, not shown here)

VBC and Brd2BD1 = molecular target: T2, VBC and Brd2BD1 (Homo sapiens, UniProt P25440+P40337); assay: ITC ternary complex formation, VBC titrated into PROTAC:Brd2BD1; format: binding; conditions: for α (cooperativity): Kd binary,VBC/Kd ternary; for α (cooperativity) / ΔΔG: Brd2BD1; for Kd / ΔG / ΔH / –TΔS: PROTAC:Brd2BD1 in cell, VBC in syringe; for ΔΔG: ternary vs binary
T2 construct: VHL (54–213), ElonginC (17–112) and; Brd2BD1 (71–194),; His6 (N, cleaved yes); made in house; host or cells: E. coli BL21(DE3)
T2 sequence (P40337 54-213): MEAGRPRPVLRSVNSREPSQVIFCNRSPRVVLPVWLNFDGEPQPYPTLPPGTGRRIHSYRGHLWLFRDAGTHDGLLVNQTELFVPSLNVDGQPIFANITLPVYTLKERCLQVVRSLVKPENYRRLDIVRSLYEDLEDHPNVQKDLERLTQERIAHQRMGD
T2 sequence (Q15369 17-112 partner limits assumed): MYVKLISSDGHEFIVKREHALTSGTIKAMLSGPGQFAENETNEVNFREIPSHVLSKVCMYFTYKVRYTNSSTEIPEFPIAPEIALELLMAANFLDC
T2 sequence (Q15370 1-104 partner limits assumed): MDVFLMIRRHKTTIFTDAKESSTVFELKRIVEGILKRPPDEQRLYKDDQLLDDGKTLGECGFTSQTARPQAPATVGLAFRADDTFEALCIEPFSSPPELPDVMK
T2 sequence (P25440 71-194): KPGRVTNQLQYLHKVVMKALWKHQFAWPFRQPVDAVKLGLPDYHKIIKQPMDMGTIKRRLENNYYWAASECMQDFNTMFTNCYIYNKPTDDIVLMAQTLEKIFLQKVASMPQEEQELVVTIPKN
From the text: as §1, §2, §3, §4, §5, §6, §7, §8, §9, §10, §11, §12, §13

Kd (Brd4BD2) | ΔG (Brd4BD2) | ΔH (Brd4BD2) | –TΔS (Brd4BD2) | α (cooperativity) (VBC and Brd2BD1) | Kd (VBC and Brd2BD1) | ΔG (VBC and Brd2BD1) | ΔH (VBC and Brd2BD1) | –TΔS (VBC and Brd2BD1) | ΔΔG (VBC and Brd2BD1) | pEC50, antiproliferative activity (MV4;11 cells; 72 h) | EC50 (MV4;11 cells; Homo sapiens, read-out: EC50, antiproliferative activity) | EC50 (MV4;11 cells; Homo sapiens, read-out: pEC50, antiproliferative activity (converted)) | SMILES | antiproliferative effect (in words) (MV4;11 cells; 72 h, compared to MZ1 or 15a) | effect on cell growth, colony formation (in words) (A549 cells) | Emax (MV4;11 cells; Homo sapiens, 72 h, read-out: Emax, maximal response at highest concentration)
0.032 ± 0.003 µM | -10.3 ± 0.1 kcal/mol | -9.3 ± 0.4 kcal/mol | -0.9 ± 0.4 kcal/mol | 1.2 | 0.5 ± 0.096 µM | -8.6 ± 0.1 kcal/mol | -5.1 ± 0.2 kcal/mol | -3.6 ± 0.3 kcal/mol | -0.1 ± 0.1 kcal/mol |  |  |  | Cc1ncsc1-c1ccc(CNC(=O)[C@@H]2[C@H](F)[C@@H](O)CN2C(=O)[C@@H](NC(=O)COCCOCCOCCNC(=O)C[C@@H]2N=C(c3ccc(Cl)cc3)c3c(sc(C)c3C)-n3c(C)nnc32)C(C)(C)C)cc1 [15b] | much weaker antiproliferative effect | affected cell growth only modestly | 
0.028 ± 0.002 µM | -10.30 kcal/mol | -10.4 ± 0.8 kcal/mol | 0.1 ± 0.6 kcal/mol | 3.9 | 0.064 ± 0.003 µM | -9.85 ± 0.05 kcal/mol | -9.17 kcal/mol | -0.6 ± 0.6 kcal/mol | -0.85 kcal/mol | 6.5 | 0.33 µM | 0.33 µM | Cc1ncsc1-c1ccc(CNC(=O)[C@@H]2[C@@H](F)[C@@H](O)CN2C(=O)[C@@H](NC(=O)COCCOCCOCCNC(=O)C[C@@H]2N=C(c3ccc(Cl)cc3)c3c(sc(C)c3C)-n3c(C)nnc32)C(C)(C)C)cc1 [15a] |  | profound concentration-dependent cytotoxicity | 92%
